Test results reported in publication PMC12362587, “Untargeted Diversity-Oriented Synthesis for the Discovery of New Antitumor Agents: An Integrated Approach of Inverse Virtual Screening, Bioinformatics, and Omics for Target Deconvolution” (Journal of Medicinal Chemistry, 2025).

What was measured:
A375 = assay: MTT cell viability assay; assay type: cell-based; details: Homo sapiens, A-375, 24 h, compounds 0.01–40 μM, read-out: In Vitro Cytotoxicity, EC50 ± SD, A375
Description: (§1) Initially, we phenotypically screened the synthesized compounds over a panel of tumor cell lines composed of HEPG2, A375, SHSY5Y, MCF7, and A549 derived from liver tumor, melanoma, neuroblastoma, breast cancer, and lung adenocarcinoma, respectively. We also considered the HaCaT cell line, coming from keratinocytes, as a healthy control line. As reference, cytotoxic chemotherapeutic agent 5-fluorouracil (5-FU) has been used. The results obtained performing the MTT (3-(4,5-dimethylthiazolyl-2)-2,5-diphenyltetrazolium bromide) assay are summarized in Table .
(§2) The human neuroblastoma SHSY5Y, melanoma A375, human breast cancer MCF7, nonsmall lung cancer A549, and human epidermal keratinocyte HaCaT cell lines were obtained from ATCC and were grown in Dulbecco’s Modified Eagle Medium (DMEM) supplemented with 10% (v/v) FBS, 2 mM L-glutamine, 100 U/mL penicillin, and 0.1 mg/mL streptomycin.
(§3) Cell viability was established by measuring mitochondrial metabolic activity with MTT. In brief, HEPG2 (1 × 10^4 cells/well), A375 (2 × 10^3 cells/well), HaCaT (3 × 10^3 cells/well), A549 (3 × 10^3 cells/well), SHSY5Y (2 × 10^4 cells/well), and MCF 7 (5 × 10^3 cells/well) were plated into 96-well plates for 24 h, then the compounds (0.01–40 μM) were added. After 24h, cells were replaced with a fresh medium containing 0.5 mg/mL MTT. Cells were incubated 1–3 h at 37 °C, then the medium was discarded, and formazan blue crystals in the cells were dissolved in 100 μL per well of a solution containing isopropanol/HCl 0.1 M. The absorbance was measured at 570 nm using a microplate reader (Multiskan Go, Thermo Scientific, Waltham, MA, USA). Cell viability was expressed as a percentage relative to the untreated cells cultured in medium with 0.1% DMSO and set to 100%, whereas 10% DMSO was used as positive control and set to 0% of viability. The EC50 values were calculated using GraphPad Prism 8.0 software by nonlinear regression of dose–response inhibition.

SHSY5Y = assay: MTT cell viability assay; assay type: cell-based; details: Homo sapiens, SH-SY5Y, 24 h, compounds 0.01–40 μM, read-out: In Vitro Cytotoxicity, EC50 ± SD, SHSY5Y
Description: as §1, §2, §3

BRD4(BD1) = target: T1, BRD4(BD1) (Homo sapiens, UniProt O60885); assay: BRD4 (BD1) Inhibitor Screening Assay Kit (AlphaScreen); assay type: binding; details: read-out: EC50 or IC50, bromodomain-containing protein 4
T1 construct: purchased BPS Bioscience (printed as 'BSP') 32514

Cathepsin K = target: T2, Cathepsin K (Homo sapiens, UniProt P43235); assay: Cathepsin K Inhibitor Screening Assay Kit (BPS Bioscience); assay type: biochemical; details: top concentration 30 μM; read-out: EC50 or IC50, Cathepsin K
T2 construct: purchased BPS Bioscience
T2 sequence (P43235 115-329): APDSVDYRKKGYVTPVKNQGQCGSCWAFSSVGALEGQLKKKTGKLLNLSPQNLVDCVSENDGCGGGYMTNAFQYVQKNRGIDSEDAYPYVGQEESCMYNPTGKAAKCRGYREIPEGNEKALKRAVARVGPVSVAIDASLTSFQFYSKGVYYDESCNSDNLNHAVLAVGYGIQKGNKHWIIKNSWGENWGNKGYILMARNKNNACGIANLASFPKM
Method: The assay was performed in a volume of 50 μL in a 96-well black plate. The Cathepsin K inhibitor assay (BPS Bioscience, USA) was designed to measure protease activity by the presence of an internally quenched fluorogenic substrate. Upon cleavage by Cathepsin K (CTSK), the fluorescence of the substrate increases dramatically. For the activity measurement, protease (final concentration, 0.5 ng per reaction), the Fluorogenic Cathepsin K Substrate (final concentration, 70 μM), E-64 (known inhibitor, as positive control) or compounds were incubated for 1 h at room temperature. The compounds were added at different concentrations in the reaction buffer, starting with a final concentration of 30 μM. Buffer with the same amount of DMSO (1%) was used as a negative control. After the incubation time, the fluorescence signals (excitation/emission, 360 nm/460 nm) were read with a PerkinElmer EnSpire multimode plate reader (PerkinElmer, Waltham, MA, USA). Experiments were performed in triplicate. IC50 values were calculated with GraphPad Prism 8.0 software by nonlinear dose–response inhibition regression.

[1] = target: T3, Poly [ADP-ribose] polymerase tankyrase-1 (Homo sapiens, UniProt O95271); assay: TNKS1 (PARP5A) Colorimetric Assay Kit (BPS Bioscience); assay type: biochemical; details: top concentration 30 μM; read-out: EC50 or IC50, Poly [ADP-ribose] polymerase tankyrase-1
T3 construct: (TNKS1) enzyme (amino acids 1001–1323; final concentration, 1.5 ng per reaction); purchased BPS Bioscience
T3 sequence (O95271 1001-1323): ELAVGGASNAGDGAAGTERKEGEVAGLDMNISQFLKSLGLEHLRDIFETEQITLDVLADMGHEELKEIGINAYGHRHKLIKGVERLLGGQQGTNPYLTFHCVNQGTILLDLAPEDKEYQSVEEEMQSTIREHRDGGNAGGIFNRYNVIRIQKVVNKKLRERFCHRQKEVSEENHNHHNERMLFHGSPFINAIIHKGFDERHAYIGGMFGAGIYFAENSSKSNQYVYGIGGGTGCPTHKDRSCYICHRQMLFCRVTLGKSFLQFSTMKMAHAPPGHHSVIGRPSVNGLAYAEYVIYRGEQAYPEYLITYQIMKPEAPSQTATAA
Method: The assay was performed in a volume of 50 μL in a 96-well transparent plate. The TNKS1 assay kit (PARP5A; BPS Bioscience, USA) was performed by first coating the 96-well plate with histone proteins, then left at 4 °C overnight. Next, Poly [ADP-ribose] polymerase tankyrase-1 (TNKS1) enzyme (amino acids 1001–1323; final concentration, 1.5 ng per reaction), a mixture of biotinylated NAD^+ (PARP substrate) and compounds were incubated for 1 h at room temperature. The compounds were added at different concentrations in the reaction buffer, starting from a final concentration of 30 μM. Buffer with the same amount of DMSO (1%) was used as a negative control. After incubation, the plate was treated with streptavidin-HRP followed by the addition of the colorimetric HRP substrate generating a colored solution. The generated signal was read at an absorbance of 450 nm using a microplate reader with UV/vis spectrophotometer (Multiskan Go, Thermo Fisher Scientific, Waltham, MA, USA). Experiments were performed in triplicate. IC50 values were calculated with GraphPad Prism 8.0 software by nonlinear dose–response inhibition regression.

[2] = target: T4, Fibroblast Growth Factor Receptor 1 (FGFR1) (Homo sapiens, UniProt P11362); assay: Kinase Enzymatic Radiometric [10 uM ATP] KinaseProfiler LeadHunter Assay; assay type: biochemical; details: Eurofins, read-out: EC50 or IC50, FGFR1
T4 construct: Eurofins (contract assay)
T4 sequence (P11362 22-822): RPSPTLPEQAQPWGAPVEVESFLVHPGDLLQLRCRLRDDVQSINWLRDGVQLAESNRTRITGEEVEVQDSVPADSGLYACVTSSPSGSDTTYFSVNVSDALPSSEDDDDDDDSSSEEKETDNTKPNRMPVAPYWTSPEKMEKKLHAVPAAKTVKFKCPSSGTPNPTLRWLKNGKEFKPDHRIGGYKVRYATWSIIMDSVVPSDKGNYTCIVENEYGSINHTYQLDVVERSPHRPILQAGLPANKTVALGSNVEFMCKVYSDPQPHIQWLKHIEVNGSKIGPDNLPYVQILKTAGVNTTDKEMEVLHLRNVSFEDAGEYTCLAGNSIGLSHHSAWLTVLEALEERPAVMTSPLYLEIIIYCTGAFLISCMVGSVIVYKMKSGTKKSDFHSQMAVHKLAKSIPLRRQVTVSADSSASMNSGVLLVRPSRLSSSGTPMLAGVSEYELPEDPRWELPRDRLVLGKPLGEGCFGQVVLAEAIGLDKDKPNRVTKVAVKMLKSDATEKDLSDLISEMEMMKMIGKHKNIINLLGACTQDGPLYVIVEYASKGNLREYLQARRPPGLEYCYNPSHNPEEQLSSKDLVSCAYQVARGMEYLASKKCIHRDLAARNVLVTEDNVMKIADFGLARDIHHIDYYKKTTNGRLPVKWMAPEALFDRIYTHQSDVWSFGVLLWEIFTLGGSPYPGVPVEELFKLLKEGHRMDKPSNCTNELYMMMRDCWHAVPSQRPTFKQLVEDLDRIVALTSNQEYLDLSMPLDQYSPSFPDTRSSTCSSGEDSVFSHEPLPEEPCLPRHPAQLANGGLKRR
Description: (§4) For displacement assays on G-protein coupled receptor 55 (GPR55), Vasopressin V2 receptor (V2R), Adenosine A1 receptor (A1AR), Fibroblast growth factor receptor 1 (FGFR1), Vascular endothelial growth factor receptor 2 (VEGFR2), Platelet-derived growth factor receptor beta (PDGFRB), Vascular endothelial growth factor receptor 1 (VEGFR1), Thromboxane Synthase (TXS) and Phosphodiesterase 10A (PDE10A), we commissioned the Eurofins company which employed its specific experimental methods, accessible at the link: https://www.eurofins.com/.

[3] = target: T5, Platelet-Derived Growth Factor Receptor-Beta (PDGFRB) (Homo sapiens, UniProt P09619); assay: as above; assay type: biochemical; details: Eurofins, read-out: EC50 or IC50, PDGFRB
T5 construct: Eurofins (contract assay)
T5 sequence (P09619 33-1106): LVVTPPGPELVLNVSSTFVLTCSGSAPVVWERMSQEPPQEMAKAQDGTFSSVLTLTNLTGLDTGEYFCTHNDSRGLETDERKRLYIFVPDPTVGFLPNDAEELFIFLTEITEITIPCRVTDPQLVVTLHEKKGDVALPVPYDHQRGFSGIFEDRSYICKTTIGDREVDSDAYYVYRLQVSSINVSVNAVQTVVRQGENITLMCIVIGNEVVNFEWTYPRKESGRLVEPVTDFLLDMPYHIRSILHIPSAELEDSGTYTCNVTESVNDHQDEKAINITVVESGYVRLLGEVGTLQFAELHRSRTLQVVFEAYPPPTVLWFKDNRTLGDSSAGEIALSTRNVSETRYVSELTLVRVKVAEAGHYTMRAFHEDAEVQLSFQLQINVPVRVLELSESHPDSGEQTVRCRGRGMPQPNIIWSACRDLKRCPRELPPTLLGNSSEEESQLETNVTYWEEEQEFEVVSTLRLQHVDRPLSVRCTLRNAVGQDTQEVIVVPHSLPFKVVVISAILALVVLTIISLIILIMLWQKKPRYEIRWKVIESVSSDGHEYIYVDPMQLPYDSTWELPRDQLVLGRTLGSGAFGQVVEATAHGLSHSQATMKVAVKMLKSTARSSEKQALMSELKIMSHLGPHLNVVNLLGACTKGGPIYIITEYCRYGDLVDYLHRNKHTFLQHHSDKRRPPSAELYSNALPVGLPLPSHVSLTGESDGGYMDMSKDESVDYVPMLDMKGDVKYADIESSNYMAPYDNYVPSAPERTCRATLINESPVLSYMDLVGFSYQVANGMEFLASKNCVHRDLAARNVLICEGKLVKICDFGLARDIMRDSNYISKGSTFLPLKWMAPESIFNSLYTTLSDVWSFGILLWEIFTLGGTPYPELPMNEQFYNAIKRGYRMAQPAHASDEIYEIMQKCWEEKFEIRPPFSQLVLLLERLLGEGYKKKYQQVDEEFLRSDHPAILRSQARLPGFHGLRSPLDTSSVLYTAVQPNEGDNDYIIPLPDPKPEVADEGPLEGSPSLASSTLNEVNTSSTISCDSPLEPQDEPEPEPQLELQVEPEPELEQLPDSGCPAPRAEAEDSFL
Description: as §4

[4] = target: T6, Vascular Endothelial Growth Factor Receptor (VEGFR-2)/KDR (Homo sapiens, UniProt P35968); assay: as above; assay type: biochemical; details: Eurofins, read-out: EC50 or IC50, VEGFR-2/KDR
T6 construct: Eurofins (contract assay)
T6 sequence (P35968 20-1356): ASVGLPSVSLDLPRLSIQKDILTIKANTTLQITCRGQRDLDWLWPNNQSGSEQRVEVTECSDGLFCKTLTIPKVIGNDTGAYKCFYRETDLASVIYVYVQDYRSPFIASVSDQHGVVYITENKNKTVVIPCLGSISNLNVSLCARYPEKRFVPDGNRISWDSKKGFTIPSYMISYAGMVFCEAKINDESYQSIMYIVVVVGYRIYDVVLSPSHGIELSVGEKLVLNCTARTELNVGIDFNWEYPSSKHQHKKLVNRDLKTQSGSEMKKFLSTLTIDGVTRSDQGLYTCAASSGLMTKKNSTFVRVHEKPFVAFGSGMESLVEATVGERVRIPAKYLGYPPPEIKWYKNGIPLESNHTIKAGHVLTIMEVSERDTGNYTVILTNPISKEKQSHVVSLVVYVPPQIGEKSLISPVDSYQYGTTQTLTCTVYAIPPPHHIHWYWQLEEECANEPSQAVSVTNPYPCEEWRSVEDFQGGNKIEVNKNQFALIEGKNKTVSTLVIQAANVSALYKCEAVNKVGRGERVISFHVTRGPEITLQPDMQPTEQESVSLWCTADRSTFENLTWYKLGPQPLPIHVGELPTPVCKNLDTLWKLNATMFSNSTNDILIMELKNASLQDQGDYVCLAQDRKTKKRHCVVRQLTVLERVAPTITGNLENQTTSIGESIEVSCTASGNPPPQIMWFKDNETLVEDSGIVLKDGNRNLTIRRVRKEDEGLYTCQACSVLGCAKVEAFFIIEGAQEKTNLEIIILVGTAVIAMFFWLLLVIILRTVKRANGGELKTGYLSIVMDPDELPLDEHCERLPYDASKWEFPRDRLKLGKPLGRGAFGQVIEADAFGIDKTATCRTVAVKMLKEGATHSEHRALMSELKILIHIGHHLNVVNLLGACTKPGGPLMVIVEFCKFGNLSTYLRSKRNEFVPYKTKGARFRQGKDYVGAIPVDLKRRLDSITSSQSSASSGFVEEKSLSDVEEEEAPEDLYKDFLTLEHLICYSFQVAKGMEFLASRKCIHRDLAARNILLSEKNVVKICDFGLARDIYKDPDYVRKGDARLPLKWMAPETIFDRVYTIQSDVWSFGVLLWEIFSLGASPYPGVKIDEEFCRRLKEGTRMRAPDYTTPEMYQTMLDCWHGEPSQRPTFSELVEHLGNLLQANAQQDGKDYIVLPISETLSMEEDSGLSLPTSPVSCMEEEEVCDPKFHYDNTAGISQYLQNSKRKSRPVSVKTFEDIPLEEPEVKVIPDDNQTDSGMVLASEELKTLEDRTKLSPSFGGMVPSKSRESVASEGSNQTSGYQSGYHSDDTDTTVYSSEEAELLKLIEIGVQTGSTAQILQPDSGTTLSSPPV
Description: as §4

[5] = target: T7, Vascular Endothelial Growth Factor Receptor-1 Flt-1 (VEGFR1) (FLT1) (Homo sapiens, UniProt P17948); assay: as above; assay type: biochemical; details: Eurofins, read-out: EC50 or IC50, VEGFR1 (FLT1)
T7 construct: Eurofins (contract assay)
T7 sequence (P17948 27-1338): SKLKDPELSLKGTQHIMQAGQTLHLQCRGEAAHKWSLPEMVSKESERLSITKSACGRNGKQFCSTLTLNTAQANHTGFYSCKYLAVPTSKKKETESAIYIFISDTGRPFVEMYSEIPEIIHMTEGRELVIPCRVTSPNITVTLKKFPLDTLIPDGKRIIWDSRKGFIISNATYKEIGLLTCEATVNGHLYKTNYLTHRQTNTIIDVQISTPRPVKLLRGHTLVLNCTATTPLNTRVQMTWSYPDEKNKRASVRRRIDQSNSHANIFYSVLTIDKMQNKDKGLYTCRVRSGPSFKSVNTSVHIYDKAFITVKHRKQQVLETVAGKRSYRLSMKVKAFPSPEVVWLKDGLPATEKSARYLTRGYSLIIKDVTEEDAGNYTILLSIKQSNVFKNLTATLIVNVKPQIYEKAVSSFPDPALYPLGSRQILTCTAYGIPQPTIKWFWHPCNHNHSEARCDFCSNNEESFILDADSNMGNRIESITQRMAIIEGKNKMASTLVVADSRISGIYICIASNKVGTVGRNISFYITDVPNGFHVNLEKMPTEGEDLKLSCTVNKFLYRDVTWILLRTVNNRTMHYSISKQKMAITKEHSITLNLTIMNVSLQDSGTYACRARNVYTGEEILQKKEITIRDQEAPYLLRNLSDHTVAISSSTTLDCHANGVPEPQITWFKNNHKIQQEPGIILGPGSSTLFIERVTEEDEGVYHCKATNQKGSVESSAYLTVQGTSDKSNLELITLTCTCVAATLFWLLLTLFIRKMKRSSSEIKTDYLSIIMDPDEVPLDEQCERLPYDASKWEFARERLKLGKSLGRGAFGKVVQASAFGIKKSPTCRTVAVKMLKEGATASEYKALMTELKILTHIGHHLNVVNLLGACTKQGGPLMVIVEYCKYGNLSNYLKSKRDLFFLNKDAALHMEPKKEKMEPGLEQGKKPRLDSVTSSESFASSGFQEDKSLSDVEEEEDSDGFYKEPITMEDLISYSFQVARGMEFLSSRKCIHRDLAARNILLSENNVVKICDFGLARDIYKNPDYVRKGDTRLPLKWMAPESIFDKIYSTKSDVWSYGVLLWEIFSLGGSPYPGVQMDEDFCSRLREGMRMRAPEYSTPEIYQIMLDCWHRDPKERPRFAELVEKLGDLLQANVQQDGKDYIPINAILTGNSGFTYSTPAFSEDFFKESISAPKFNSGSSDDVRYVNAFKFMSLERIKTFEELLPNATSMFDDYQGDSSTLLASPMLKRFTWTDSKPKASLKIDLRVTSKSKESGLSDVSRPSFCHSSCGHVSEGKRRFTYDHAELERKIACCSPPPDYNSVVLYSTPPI
Description: as §4

IC50 (BRD4(BD1)) [µM]	IC50 (Cathepsin K) [µM]	IC50 [1] [µM]	IC50 [2] [µM]	IC50 [3] [µM]	IC50 [4] [µM]	IC50 [5] [µM]	SMILES	EC50 (A375) [µM]	EC50 (SHSY5Y) [µM]
1.19 ± 0.29	> 30	> 30	≥ 30	≥ 30	≥ 30	≥ 30	CC(C)C[C@H]1C(=O)N(Cc2ccc(C(F)(F)F)cc2)c2ccccc2C(=O)N1Cc1ccc(C(F)(F)F)cc1 [Compound 31, (S)-3-Isobutyl-1,4-bis(4-(trifluoromethyl)benzyl)-3,4-dihydro-1H-benzo[e][1,4]diazepine-2,5-dione]	0.65 ± 0.4	> 40
0.11 ± 0.09	> 30	> 30	≥ 30	≥ 30	≥ 30	≥ 30	CC(C)C[C@@H](C(=O)OCc1ccccc1)N1Cc2ccccc2NC1=O [Compound 63, Benzyl (S)-4-Methyl-2-(2-oxo-1,4-dihydroquinazolin-3(2H)-yl)pentanoate]	2.29 ± 1.12	23.2 ± 4.17
